Measurements: patent publication US12134610B2, “Somatostatin subtype-2 receptor (SST2R) targeted therapeutics and uses thereof” (priority 2022, dated 2024)

What was measured:
Type in all cases: cell-based
[1] = target: T1, human somatostatin receptor subtype 2 (Homo sapiens, UniProt P30874); assay: Functional cAMP assay for SSTR2 agonists (HTRF) in CHO-K1 cells; details: CHO-K1 cells stably expressing human SST2, 20 min; read-out: hSST2 cAMP Avg EC50
T1 construct: expressed in transfected cells
Summary of the method: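 CHO-K1 cells stably expressing receptor, plated 4 days before assay, treated 20 min at 37° C. with compound (typically 0-10,000 nM final) plus IBMX and 1.6 μM NKH477 to raise cAMP. HTRF read, 665/620 nm ratio; cAMP from standard curve, EC50 fitted.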

[2] = tested on: NCI-H524 (ATCC) human small cell lung cancer cells; details: 2 h
Summary of the method: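 NCI-H524 cells (5,000/well) were exposed 24 h after plating to SMDC for 2 h, 11-point two-fold series from 1 uM. After washout they grew a further 70 h. Proliferation was read by CellTiter-Glo luminescence, % inhibition taken vs untreated control, and IC50 fitted by four-parameter nonlinear regression.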

SST2 = target: T2, SST2 (Homo sapiens, UniProt P30874); assay: PathHunter CHO-K1 SST2 internalization assay; details: PathHunter CHO-K1 SST2, 90 min; read-out: Internalization EC50
T2 construct: host or cells: PathHunter CHO-K1 SST2 cells
Summary of the method: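 PathHunter CHO-K1 SST2 cells, seeded and grown 48 h, were exposed to 11-point 1:3 dilutions of SMDC (top final 10 uM) for 90 min at 37 C, 5% CO2. Beta-Glo luminescence was read after 60 min at room temperature. Background-corrected duplicate means were fitted by four-parameter nonlinear regression to give IC50.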

T1 sequence (P30874 whole entry): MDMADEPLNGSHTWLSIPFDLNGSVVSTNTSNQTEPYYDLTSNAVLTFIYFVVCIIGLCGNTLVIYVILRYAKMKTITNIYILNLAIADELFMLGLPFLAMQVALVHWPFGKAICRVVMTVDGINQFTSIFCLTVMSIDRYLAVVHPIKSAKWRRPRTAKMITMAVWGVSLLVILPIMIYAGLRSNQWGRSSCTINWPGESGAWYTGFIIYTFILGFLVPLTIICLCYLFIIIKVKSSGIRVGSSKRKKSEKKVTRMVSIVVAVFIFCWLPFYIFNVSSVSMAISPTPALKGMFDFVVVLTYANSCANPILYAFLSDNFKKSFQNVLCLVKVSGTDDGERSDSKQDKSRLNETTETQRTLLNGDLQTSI
T2 sequence (P30874 whole entry): as above

Row | SMILES | EC50 [1] [nM] | EC50 [2] [nM] | EC50 (SST2) [nM]
1 | CC[C@H](C)[C@@H]([C@@H](CC(=O)N1CCC[C@H]1[C@H](OC)[C@@H](C)C(=O)N[C@H](C)[C@@H](O)c1ccccc1)OC)N(C)C(=O)[C@@H](NC(=O)[C@H](C(C)C)N(C)C(=O)OCc1ccc(NC(=O)[C@H](C)NC(=O)[C@@H](NC(=O)CCCC(=O)N(C)CC(=O)NCCNc2ncc(-c3cc(C)cc(F)c3)c(N3CCC(N)CC3)c2-c2nc3ccc(Cl)cc3[nH]2)C(C)C)c(O[C@@H]2O[C@H](C(=O)O)[C@@H](O)[C@H](O)[C@H]2O)c1)C(C)C [Compound 140] | 0.33 | 5.4 | 1.8
2 | CC[C@H](C)[C@@H]([C@@H](CC(=O)N1CCC[C@H]1[C@H](OC)[C@@H](C)C(=O)N[C@H](C)[C@@H](O)c1ccccc1)OC)N(C)C(=O)[C@@H](NC(=O)[C@H](C(C)C)N(C)C(=O)OCc1ccc(NC(=O)[C@H](CCCNC(N)=O)NC(=O)[C@@H](NC(=O)CCCC(=O)N(C)CC(=O)NCCNc2ncc(-c3cc(C)cc(F)c3)c(N3CCC(N)CC3)c2-c2nc3ccc(Cl)cc3[nH]2)C(C)C)c(O[C@@H]2O[C@H](C(=O)O)[C@@H](O)[C@H](O)[C@H]2O)c1)C(C)C [Compound 141] | 0.22 | 11 | 2.3
3 | CC[C@H](C)[C@@H]([C@@H](CC(=O)N1CCC[C@H]1[C@H](OC)[C@@H](C)C(=O)N[C@H](C)[C@@H](O)c1ccccc1)OC)N(C)C(=O)[C@@H](NC(=O)[C@H](C(C)C)N(C)C(=O)OCc1ccc(NC(=O)[C@H](CCCNC(N)=O)NC(=O)[C@@H](NC(=O)CCCC(=O)N(C)CC(=O)N(C)CC(=O)N(C)CC(=O)NCCNc2ncc(-c3cc(C)cc(F)c3)c(N3CCC(N)CC3)c2-c2nc3ccc(Cl)cc3[nH]2)C(C)C)c(O[C@@H]2O[C@H](C(=O)O)[C@@H](O)[C@H](O)[C@H]2O)c1)C(C)C [Compound 142] | 0.25 | 91 | 4.4
4 | CC[C@H](C)[C@@H]([C@@H](CC(=O)N1CCC[C@H]1[C@H](OC)[C@@H](C)C(=O)N[C@H](C)[C@@H](O)c1ccccc1)OC)N(C)C(=O)[C@@H](NC(=O)[C@H](C(C)C)N(C)C(=O)OCc1ccc(NC(=O)[C@H](CCCNC(N)=O)NC(=O)[C@@H](NC(=O)[C@H](CCC(=O)O)NC(=O)CCOCCC(=O)NCCNc2ncc(-c3cc(C)cc(F)c3)c(N3CCC(N)CC3)c2-c2nc3ccc(Cl)cc3[nH]2)C(C)C)c(O[C@@H]2O[C@H](C(=O)O)[C@@H](O)[C@H](O)[C@H]2O)c1)C(C)C [Compound 143] | 0.14 | 100 | 3
5 | CC[C@H](C)[C@@H]([C@@H](CC(=O)N1CCC[C@H]1[C@H](OC)[C@@H](C)C(=O)N[C@H](C)[C@@H](O)c1ccccc1)OC)N(C)C(=O)[C@@H](NC(=O)[C@H](C(C)C)N(C)C(=O)OCc1ccc(NC(=O)[C@H](CCCNC(N)=O)NC(=O)[C@@H](NC(=O)[C@H](CCC(=O)O)NC(=O)CCOCCOCCOCCOCCC(=O)NCCNc2ncc(-c3cc(C)cc(F)c3)c(N3CCC(N)CC3)c2-c2nc3ccc(Cl)cc3[nH]2)C(C)C)c(O[C@@H]2O[C@H](C(=O)O)[C@@H](O)[C@H](O)[C@H]2O)c1)C(C)C [Compound 144] | 0.21 | 120 | 6.9
6 | CC[C@H](C)[C@@H]([C@@H](CC(=O)N1CCC[C@H]1[C@H](OC)[C@@H](C)C(=O)N[C@H](C)[C@@H](O)c1ccccc1)OC)N(C)C(=O)[C@@H](NC(=O)[C@H](C(C)C)N(C)C(=O)OCc1ccc(NC(=O)[C@H](C)NC(=O)[C@@H](NC(=O)[C@H](CCC(=O)O)NC(=O)CCOCCC(=O)NCCNc2ncc(-c3cc(C)cc(F)c3)c(N3CCC(N)CC3)c2-c2nc3ccc(Cl)cc3[nH]2)C(C)C)c(O[C@@H]2O[C@H](C(=O)O)[C@@H](O)[C@H](O)[C@H]2O)c1)C(C)C [Compound 145] | 0.25 | 150 | 7.9
